US20210395241A1, “NLRP MODULATORS” (Novartis AG, priority 2018, published 2021)

Key:
[1] = system: IL-1β production in PMA-differentiated THP-1 cells; experiment: IL-1β production in PMA-differentiated THP-1 cells stimulated with gramicidin (hTHP-1 assay); assay type: cell-based; settings: Homo sapiens, gramicidin 5 μM, 2% fetal bovine serum
Protocol: Procedure 1: IL-1β Production in PMA-Differentiated THP-1 Cells Stimulated with Gramicidin.
THP-1 cells were purchased from the American Type Culture Collection and sub-cultured according to instructions from the supplier. Cells were cultured in complete RPMI 1640 (containing 10% heat inactivated FBS, penicillin (100 units/ml) and streptomycin (100 μg/ml)), and maintained in log phase prior to experimental setup. Prior to the experiment, compounds were dissolved in dimethyl sulfoxide (DMSO) to generate a 30 mM stock. The compound stock was first pre-diluted in DMSO to 3, 0.34, 0.042 and 0.0083 mM intermediate concentrations and subsequently spotted using Echo550 liquid handler into an empty 384-well assay plate to achieve desired final concentration (e.g. 100, 33, 11, 3.7, 1.2, 0.41, 0.14, 0.046, 0.015, 0.0051, 0.0017 μM). DMSO was backfilled in the plate to achieve a final DMSO assay concentration of 0.37%. The plate was then sealed and stored at room temperature until required.
THP-1 cells were treated with PMA (Phorbol 12-myristate 13-acetate) (20 ng/ml) for 16-18 hours. On the day of the experiment the media was removed and adherent cells were detached with trypsin for 5 minutes. Cells were then harvested, washed with complete RPMI 1640, spun down, and resuspended in RPMI 1640 (containing 2% heat inactivated FBS, penicillin (100 units/ml) and streptomycin (100 μg/ml). The cells were plated in the 384-well assay plate containing the spotted compounds at a density of 50,000 cells/well (final assay volume 50 μl). Cells were incubated with compounds for 1 hour and then stimulated with gramicidin (5 μM) (Enzo) for 2 hours. Plates were then centrifuged at 340 g for 5 min. Cell free supernatant (40 μL) was collected using a 96-channel PlateMaster (Gilson) and the production of IL-1β was evaluated by HTRF (cisbio). The plates were incubated for 18 h at 4° C. and read using the preset HTRF program (donor emission at 620 nm, acceptor emission at 668 nm) of the SpectraMax i3x spectrophotometer (Molecular Devices, software SoftMax 6). A vehicle only control and a dose titration of CRID3 (100-0.0017 μM) were run concurrently with each experiment. Data was normalized to vehicle-treated samples (equivalent to 0% inhibition) and CRID3 at 100 μM (equivalent to 100% inhibition).
Procedure 2: IL-1β Production in PMA-Differentiated THP-1 Cells Stimulated with Gramicidin.
THP-1 cells were purchased from the American Type Culture Collection and sub-cultured according to instructions from the supplier. Prior to experiments, cells were cultured in complete RPMI 1640 (containing 10% heat inactivated FBS, penicillin (100 units/ml) and streptomycin (100 μg/ml)), and maintained in log phase prior to experimental setup. Prior to the experiment THP-1 were treated with PMA (Phorbol 12-myristate 13-acetate) (20 ng/ml) for 16-18 hours. Compounds were dissolved in dimethyl sulfoxide (DMSO) to generate a 30 mM stock. On the day of the experiment the media was removed and adherent cells were detached with trypsin for 5 minutes. Cells were then harvested, washed with complete RPMI 1640, spun down, resuspended in RPMI 1640 (containing 2% heat inactivated FBS, penicillin (100 units/ml) and streptomycin (100 μg/ml). The cells were plated in a 384-well plate at a density of 50,000 cells/well (final assay volume 50 μl). Compounds were first dissolved in assay medium to obtain a 5× top concentration of 500 μM. 10 step dilutions (1:3) were then undertaken in assay medium containing 1.67% DMSO. 5× compound solutions were added to the culture medium to achieve desired final concentration (e.g. 100, 33, 11, 3.7, 1.2, 0.41, 0.14, 0.046, 0.015, 0.0051, 0.0017 μM). Final DMSO concentration was at 0.37%. Cells were incubated with compounds for 1 hour and then stimulated with gramicidin (5 μM) (Enzo) for 2 hours. Plates were then centrifuged at 340 g for 5 min. […]

[2] = Colon pharmacokinetics in mice; assay type: in vivo; settings: 30 mg/kg oral gavage in 0.5% methyl-cellulose in water, male C57BL/6 mouse, colon conc. to plasma conc. ratio at 8 h; read-out: Mouse TD Colon/Plasma @ 8 h
Protocol: Assay 2: Colon Pharmacokinetics in Mice
The test compound was formulated in 0.5% methyl-cellulose in water and dosed via oral gavage at 30 mg/kg to Male C57BL/6 Mouse. At various time points (typically 15 min, 30 min, 1, 2, 4, 6 and 8 h) post dosing, blood samples were removed via cardiac […] puncture and intact colons were excised from the […]. Blood samples were centrifuged at 1500×g for 15 min to collect plasma. At the terminal time point each individual animal is anaesthetized, abdominal cavity is opened and from 2 cm below the caecum a 4 cm sample of the colon is dissected, cut open on the longitudinal axis and the solid contents removed by flushing with 2 mL of physiological fluid. The colon was further washed by putting it in 5 mL of physiological saline and shaken for 1 minute. The colon was pet dry weighed and transferred in 2 mL tubes. Colon will be weighted and homogenized with water by tissue weight (g) to water volume (mL) at ratio 1:3 before analysis. The actual concentration is the detected value multiplied by the dilution factor. A colon to plasma ratio was determined as the ratio of the colon conc. to the plasma conc. in pg hr/g. at 8 h time point.

CC(C)c1cc(C#N)c(F)c(C(C)C)c1CC(=O)NS(=O)(=O)c1ccc(CN(C)C)c(CO)c1 [Compound 133]
IC50 ([1]; class symbols): 1 to 5 µM

CNS(=O)(=O)c1ccc(S(=O)(=O)NC(=O)Cc2c(C(C)C)cc(C#N)c(F)c2C(C)C)c(C(=O)O)c1 [Compound 114]
IC50 ([1]; given as numeric bound): > 100 µM

CC(C)c1cc(C#N)c(F)c(C(C)C)c1CC(=O)NS(=O)(=O)c1cc(CO)c(C(C)(C)O)cc1F [Compound 125]
IC50 ([1]; class symbols): 1 to 5 µM

CC(C)c1cc(-c2ccc3c(c2)OC(F)(F)O3)cc(C(C)C)c1CC(=O)NS(=O)(=O)c1sc(C(C)(C)O)nc1CO [Compound 142]
IC50 ([1]; class symbols): 0.008 to 0.04 µM

CC(C)c1cc(C#N)c(F)c(C(C)C)c1CC(=O)NS(=O)(=O)c1ccc(C(C)(C)O)c(CO)c1 [Compound 138]
IC50 ([1]; class symbols): 1 to 5 µM

CNS(=O)(=O)c1ccc(S(=O)(=O)NC(=O)Cc2c(C(C)C)cc(C#N)c(F)c2C(C)C)c(C(=O)OC)c1 [Compound 120]
IC50 ([1]; class symbols): 5 to 30 µM

CC(C)c1cc(C#N)c(F)c(C(C)C)c1CC(=O)NS(=O)(=O)c1ccc(S(N)(=O)=O)cc1CO [Compound 126]
IC50 ([1]; given as numeric bound): > 100 µM

CC(C)c1ccc(C#N)c(C(C)C)c1CC(=O)NS(=O)(=O)c1sc(C(C)(C)O)nc1CO [Compound 104]
IC50 ([1]; class symbols): 5 to 30 µM

CC(C)c1cc(C#N)c(F)c(C(C)C)c1CC(=O)NS(=O)(=O)c1sc(C(C)(C)O)nc1CCO [Compound 108]
IC50 ([1]; class symbols): 0.2 to 1 µM

CNS(=O)(=O)c1ccc(S(=O)(=O)NC(=O)Cc2c(C(C)C)cc(C#N)c(F)c2C(C)C)c(C(=O)N(C)C)c1 [Compound 112]
IC50 ([1]; given as numeric bound): > 100 µM

CNS(=O)(=O)c1ccc(S(=O)(=O)NC(=O)Cc2c(C(C)C)cc(COC)cc2C(C)C)c(CO)c1 [Compound 116]
IC50 ([1]; class symbols): 1 to 5 µM

CNS(=O)(=O)c1ccc(S(=O)(=O)NC(=O)Cc2c(C(C)C)cc(C#N)c(F)c2C(C)C)cc1CO [Compound 128]
IC50 ([1]; class symbols): 0.2 to 1 µM | Kp at 8 h [2]: 1180

CC(C)c1cc(C#N)c(F)c(C(C)C)c1CC(=O)NS(=O)(=O)c1ccc(S(=O)(=O)NC(C)(C)C)cc1CO [Compound 124]
IC50 ([1]; given as numeric bound): > 100 µM

CC(C)c1cc(C#N)c(F)c(C(C)C)c1CC(=O)NS(=O)(=O)c1sc(C(C)(C)O)nc1CO [Compound 136]
IC50 ([1]; class symbols): 0.2 to 1 µM

CC(C)c1cc(C#N)cc(C(C)C)c1CC(=O)NS(=O)(=O)c1cc(CO)c(C(C)(C)O)cc1F [Compound 130]
IC50 ([1]; class symbols): 1 to 5 µM

CNS(=O)(=O)c1cc(CO)cc(S(=O)(=O)NC(=O)Cc2c(C(C)C)cc(C#N)c(F)c2C(C)C)c1 [Compound 129]
IC50 ([1]; class symbols): 1 to 5 µM

CNS(=O)(=O)c1ccc(S(=O)(=O)NC(=O)Cc2c(C(C)C)cc(C#N)c(F)c2C(C)C)c(CO)c1 [Compound 127]
IC50 ([1]; class symbols): 0.2 to 1 µM | Kp at 8 h [2]: 197

CC(C)c1cncc(C(C)C)c1CC(=O)NS(=O)(=O)c1sc(C(C)(C)O)nc1CO [Compound 109]
IC50 ([1]; class symbols): 5 to 30 µM

CNS(=O)(=O)c1ccc(S(=O)(=O)NC(=O)Cc2c(C(C)C)cc(C#N)c(F)c2C(C)C)c(O)c1 [Compound 107]
IC50 ([1]; class symbols): 0.2 to 1 µM

CCC(C)c1cc(C#N)cc(C(C)C)c1CC(=O)NS(=O)(=O)c1sc(C(C)(C)O)nc1CO (stereo not drawn) [Compound 119]
IC50 ([1]; class symbols): 0.2 to 1 µM | Kp at 8 h [2]: 6720

CC(C)Cc1cc(C#N)cc(C(C)C)c1CC(=O)NS(=O)(=O)c1sc(C(C)(C)O)nc1CO [Compound 122]
IC50 ([1]; class symbols): 1 to 5 µM | Kp at 8 h [2]: 1480

CNS(=O)(=O)c1ccc(S(=O)(=O)NC(=O)Cc2c(C(C)C)cc(C#N)c(F)c2C(C)C)c(C(N)=O)c1 [Compound 111]
IC50 ([1]; class symbols): 5 to 30 µM

CC(C)c1cc(-c2ccc3c(c2)COCC3)cc(C(C)C)c1CC(=O)NS(=O)(=O)c1sc(C(C)(C)O)nc1CO [Compound 101]
IC50 ([1]; class symbols): 1 to 5 µM

CC(C)c1c(F)c(C#N)c(F)c(C(C)C)c1CC(=O)NS(=O)(=O)c1sc(C(C)(C)O)nc1CO [Compound 135]
IC50 ([1]; class symbols): 0.2 to 1 µM

COc1cc(S(=O)(=O)NCCO)ccc1S(=O)(=O)NC(=O)Cc1c(C(C)C)cc(C#N)c(F)c1C(C)C [Compound 106]
IC50 ([1]; class symbols): 5 to 30 µM

CNC(=O)c1cc(S(=O)(=O)NC(=O)Cc2c(C(C)C)cc(C#N)c(F)c2C(C)C)ccc1S(=O)(=O)NC [Compound 132]
IC50 ([1]; class symbols): 5 to 30 µM

CNS(=O)(=O)c1ccc(S(=O)(=O)NC(=O)Cc2c(C(C)C)cc(COC3CCCC3)cc2C(C)C)c(CO)c1 [Compound 140]
IC50 ([1]; class symbols): 0.04 to 0.2 µM | Kp at 8 h [2]: 558

CNS(=O)(=O)c1ccc(S(=O)(=O)NC(=O)Cc2c(C(C)C)cc(C#N)c(F)c2C(C)C)c(OC)c1 [Compound 117]
IC50 ([1]; class symbols): 0.2 to 1 µM | Kp at 8 h [2]: 3380

CC(C)c1cc(C#N)c(F)c(C(C)C)c1CC(=O)NS(=O)(=O)c1ccc(S(N)(=O)=O)c(CO)c1 [Compound 131]
IC50 ([1]; class symbols): 1 to 5 µM

CC(C)c1cc(C#N)cc(C(C)C)c1CC(=O)NS(=O)(=O)c1sc(C(C)(C)O)nc1CO [Compound 134]
IC50 ([1]; class symbols): 1 to 5 µM

Cc1cc(C(C)(C)O)c(CO)cc1S(=O)(=O)NC(=O)Cc1c(C(C)C)cc(C#N)cc1C(C)C [Compound 123]
IC50 ([1]; class symbols): 5 to 30 µM

CC(C)c1cc(C#N)cc(C(C)C)c1CC(=O)NS(=O)(=O)c1ccc(CN(C)C)c(CO)c1 [Compound 137]
IC50 ([1]; class symbols): 5 to 30 µM

CC(C)c1c(F)c(C#N)cc(C2CC2)c1CC(=O)NS(=O)(=O)c1sc(C(C)(C)O)nc1CO [Compound 105]
IC50 ([1]; class symbols): 1 to 5 µM

COc1cc(S(=O)(=O)NCCCO)ccc1S(=O)(=O)NC(=O)Cc1c(C(C)C)cc(C#N)c(F)c1C(C)C [Compound 103]
IC50 ([1]; class symbols): 1 to 5 µM

COCc1cc(C(C)C)c(CC(=O)NS(=O)(=O)c2sc(C(C)(C)O)nc2CO)c(C(C)C)c1 [Compound 118]
IC50 ([1]; class symbols): 1 to 5 µM

CC(C)c1cc2c(c(C(C)C)c1CC(=O)NS(=O)(=O)c1sc(C(C)(C)O)nc1CO)COC2 [Compound 102]
IC50 ([1]; class symbols): 1 to 5 µM
